In article PMC12466090 (Photochemistry and Photobiology, 2025):

Experiments:
[1] = in water; standard of the relative method; no reference given; cited from earlier work
[2] = UV-VIS absorption / fluorescence spectroscopy; assay type: physicochemical; settings: fluorescence spectrum in washed cells, excitation at 600 nm (Figure S3)

Molecule | singlet oxygen quantum yield (ΦΔ) of the reference standard [1] | form bound to cells (fluorescence spectrum after uptake) [2]
CN(C)c1ccc2nc3ccc(=[N+](C)C)cc-3sc2c1 [methylene blue] | 0.52 | 
cRGDfK (Arg–Gly–Asp–D–Phe–Lys) (head to tail) [SiPc‐2c(RGDfK)] |  | monomeric form is bound to cells
